Assay results taken from patent US20250228239A1, “MOLECULES HAVING PESTICIDAL UTILITY, AND INTERMEDIATES, COMPOSITIONS, AND PROCESSES, RELATED THERETO” (priority 2024, published 2025).
Like-named read-outs stand apart in the source and are kept apart here.

Columns and labels:
Type in all cases: in vivo
[1] = system: Beet Armyworm (Spodoptera exigua, LAPHEG); assay: Bioassays on Beet Armyworm (BAW), 128-well diet tray assay; conditions: for pest or weed control at 50 µg/cm2: Spodoptera exigua
Method in brief: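 Eight diet wells per compound were treated at 50 μg/cm^2 (acetone-water 90:10), dried, then infested with 1–5 second-instar larvae each. After five to seven days at 25 °C under 14:10 photoperiod, mortality was scored and averaged across wells.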

[2] = system: Yellow Fever Mosquito (Aedes aegypti, AEDSAE); conditions: for YFM rating: Yellow Fever Mosquito, Table ABC / ABC-DP rating; for YFM: Table ABC: Biological Results, species YFM
Method in brief: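 Compounds from DMSO master plates (4000 ppm stock) diluted in 90:10 water/acetone, then dispensed into six replicate plates and infested with ~1-day-old Aedes aegypti larvae in liver-powder water. Held covered at room temperature for 3 days; each well scored for larval mortality and graded on a rating scale.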

[3] = system: Green Peach Aphid (Myzus persicae, MYZUPE); assay: Bioassays on Green Peach Aphid (GPA), foliar spray on cabbage seedlings; conditions: 72 h
Method in brief: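 Percent control (Abbott-corrected versus solvent-sprayed plants) comes from live-aphid counts three days after treatment at about 25° C. Test solution at 200 ppm was sprayed to runoff onto both leaf surfaces of cabbage seedlings infested a day earlier with 20-50 aphids; four replicate pots.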

[4] = system: Cabbage Looper (Trichoplusia ni, TRIPNI); assay: Bioassays on Cabbage Looper (CL), 128-well diet tray assay; conditions: for pest or weed control at 50 µg/cm2: Trichoplusia ni
Method in brief: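 Activity is mean percent mortality over eight wells of second-instar larvae exposed to diet treated at 50 μg/cm^2 for 5–7 days at 25° C.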

[5] = Beet Armyworm, Table ABC / ABC-DP rating, read-out: BAW rating
[6] = Green Peach Aphid, Table ABC / ABC-DP rating, read-out: GPA rating
[7] = Cabbage Looper, Table ABC / ABC-DP rating, read-out: CL rating
[8] = Table ABC: Biological Results, species BAW, read-out: BAW
[9] = Table ABC: Biological Results, species GPA, read-out: GPA
[10] = Table ABC: Biological Results, species CL, read-out: CL

O=C(CNC(=O)c1cc(NC(=O)[C@H]2[C@H](c3cc(Cl)cc(Cl)c3)C2(Cl)Cl)ccc1Cl)NCC(F)(F)F (relative stereo) [F2078, trans-2-Chloro-5-(2,2-dichloro-3-(3,5-dichlorophenyl)cyclopropane-1-carboxamido)-N-(2-oxo-2-(2,2,2-trifluoroethylamino)ethyl)benzamide]
pest or weed control at 50 µg/cm2 [1, 5]: 50 to 100% | YFM rating [2]: A (80–100) | pest or weed control at 200 µg/mL [3, 6]: 80 to 100% | pest or weed control at 50 µg/cm2 [4, 7]: 50 to 100%

O=C(CCCNC(=O)c1cc(NC(=O)[C@H]2[C@H](c3cc(Cl)cc(Cl)c3)C2(Cl)Cl)ccc1Cl)NCC(F)(F)F (relative stereo) [F2080, trans-2-Chloro-5-(2,2-dichloro-3-(3,5-dichlorophenyl)cyclopropane-1-carboxamido)-N-(4-oxo-4-(2,2,2-trifluoroethylamino)butyl)benzamide]
pest or weed control at 50 µg/cm2 [1, 5]: 50 to 100% | YFM rating [2]: B (More than 0 – Less than 80) | pest or weed control at 200 µg/mL [3, 6]: 0 to 80% | pest or weed control at 50 µg/cm2 [4, 7]: 50 to 100%

O=C(CNC(=O)c1cc(NC(=O)[C@H]2[C@H](c3cc(Cl)cc(Cl)c3)C2(Cl)Cl)ccc1Cl)NCCC(F)(F)F (relative stereo) [F2081, trans-2-Chloro-5-(2,2-dichloro-3-(3,5-dichlorophenyl)cyclopropane-1-carboxamido)-N-(2-oxo-2-(3,3,3-trifluoropropylamino)ethyl)benzamide]
pest or weed control at 50 µg/cm2 [1, 5]: 50 to 100% | YFM rating [2]: A (80–100) | pest or weed control at 200 µg/mL [3, 6]: 80 to 100% | pest or weed control at 50 µg/cm2 [4, 7]: 50 to 100%

O=C(NCCNC(=O)C(F)(F)F)c1cc(NC(=O)[C@H]2[C@H](c3cc(Cl)cc(Cl)c3)C2(Cl)Cl)ccc1Cl (relative stereo) [F2082, trans-2-Chloro-5-(2,2-dichloro-3-(3,5-dichlorophenyl)cyclopropane-1-carboxamido)-N-(2-(2,2,2-trifluoroacetamido)ethyl)benzamide]
BAW rating ([1]; Beet Armyworm, Table ABC / ABC-DP rating): A (50–100) | YFM rating [2]: B (More than 0 – Less than 80) | pest or weed control at 200 µg/mL [3, 6]: 80 to 100% | CL rating ([4]; Cabbage Looper, Table ABC / ABC-DP rating): A (50–100)

Nc1ccc(F)c(NC(=O)c2cc(NC(=O)[C@H]3[C@H](c4cc(Cl)cc(Cl)c4)C3(Cl)Cl)ccc2Cl)c1F [F1227, N-(3-Amino-2,6-difluorophenyl)-2-chloro-5-((1R,3R)-2,2-dichloro-3-(3,5-dichlorophenyl)cyclopropane-1-carboxamido)benzamide]
pest or weed control at 50 µg/cm2 [1, 8]: 50 to 100% | YFM [2]: A (80–100) | pest or weed control at 200 µg/mL [3, 9]: 0 to 80% | pest or weed control at 50 µg/cm2 [4, 10]: 50 to 100%

Nc1ccc(F)c(NC(=O)c2cc(NC(=O)[C@H]3[C@H](c4cc(Cl)c(Cl)c(Cl)c4)C3(Cl)Cl)ccc2Cl)c1F [F1228, N-(3-Amino-2,6-difluorophenyl)-2-chloro-5-((1R,3R)-2,2-dichloro-3-(3,4,5-trichlorophenyl)cyclopropane-1-carboxamido)benzamide]
pest or weed control at 50 µg/cm2 [1, 8]: 50 to 100% | YFM [2]: A (80–100) | pest or weed control at 200 µg/mL [3, 9]: 0 to 80% | pest or weed control at 50 µg/cm2 [4, 10]: 50 to 100%

O=C(Nc1c(F)ccc(NC(=O)C(F)F)c1F)c1cc(NC(=O)[C@H]2[C@H](c3ccc(F)c(Cl)c3)C2(Cl)Cl)ccc1Cl [F1234, 2-Chloro-5-((1R,3R)-2,2-dichloro-3-(3-chloro-4-fluorophenyl)cyclopropane-1-carboxamido)-N-(3-(2,2-difluoroacetamido)-2,6-difluorophenyl)benzamide]
pest or weed control at 50 µg/cm2 [1, 8]: 50 to 100% | YFM [2]: A (80–100) | pest or weed control at 200 µg/mL [3, 9]: 80 to 100% | pest or weed control at 50 µg/cm2 [4, 10]: 50 to 100%

O=C(Nc1c(F)ccc(NC(=O)C(F)F)c1F)c1cc(NC(=O)[C@H]2[C@H](c3cc(Cl)c(Cl)c(Cl)c3)C2(Cl)Cl)ccc1Cl [F1238, 2-Chloro-5-((1R,3R)-2,2-dichloro-3-(3,4,5-trichlorophenyl)cyclopropane-1-carboxamido)-N-(3-(2,2-difluoroacetamido)-2,6-difluorophenyl)benzamide]
pest or weed control at 50 µg/cm2 [1, 8]: 50 to 100% | YFM [2]: A (80–100) | pest or weed control at 200 µg/mL [3, 9]: 0 to 80% | pest or weed control at 50 µg/cm2 [4, 10]: 50 to 100%

O=C(Nc1c(F)ccc(NC(=O)C(F)F)c1F)c1cc(NC(=O)[C@H]2[C@H](c3ccc(Cl)c(Cl)c3)C2(Cl)Cl)ccc1Cl [F1240, 2-Chloro-5-((1R,3R)-2,2-dichloro-3-(3,4-dichlorophenyl)cyclopropane-1-carboxamido)-N-(3-(2,2-difluoroacetamido)-2,6-difluorophenyl)benzamide]
pest or weed control at 50 µg/cm2 [1, 8]: 50 to 100% | YFM [2]: A (80–100) | pest or weed control at 200 µg/mL [3, 9]: 0 to 80% | pest or weed control at 50 µg/cm2 [4, 10]: 50 to 100%

O=C(Nc1c(F)ccc(NC(=O)C(F)F)c1F)c1cc(NC(=O)[C@H]2[C@H](c3cc(Cl)cc(Cl)c3)C2(Cl)Cl)ccc1Cl [F1241, 2-Chloro-5-((1R,3R)-2,2-dichloro-3-(3,5-dichlorophenyl)cyclopropane-1-carboxamido)-N-(3-(2,2-difluoroacetamido)-2,6-difluorophenyl)benzamide]
pest or weed control at 50 µg/cm2 [1, 8]: 50 to 100% | YFM [2]: A (80–100) | pest or weed control at 200 µg/mL [3, 9]: 80 to 100% | pest or weed control at 50 µg/cm2 [4, 10]: 50 to 100%

O=C(Nc1cc(NC(=O)C(F)F)c(F)cc1F)c1cc(NC(=O)[C@H]2[C@H](c3ccc(Cl)c(Cl)c3)C2(Cl)Cl)ccc1Cl [F1242, 2-Chloro-5-((1R,3R)-2,2-dichloro-3-(3,4-dichlorophenyl)cyclopropane-1-carboxamido)-N-(5-(2,2-difluoroacetamido)-2,4-difluorophenyl)benzamide]
pest or weed control at 50 µg/cm2 [1, 8]: 50 to 100% | YFM [2]: A (80–100) | pest or weed control at 200 µg/mL [3, 9]: 0 to 80% | pest or weed control at 50 µg/cm2 [4, 10]: 50 to 100%

O=C(Nc1cc(NC(=O)C(F)(F)Cl)c(F)cc1F)c1cc(NC(=O)[C@H]2[C@H](c3ccc(Cl)c(Cl)c3)C2(Cl)Cl)ccc1Cl [F1243, 2-Chloro-N-(5-(2-chloro-2,2-difluoroacetamido)-2,4-difluorophenyl)-5-((1R,3R)-2,2-dichloro-3-(3,4-dichlorophenyl)cyclopropane-1-carboxamido)benzamide]
pest or weed control at 50 µg/cm2 [1, 8]: 50 to 100% | YFM [2]: A (80–100) | pest or weed control at 200 µg/mL [3, 9]: 0 to 80% | pest or weed control at 50 µg/cm2 [4, 10]: 50 to 100%

O=C(Nc1cc(NC(=O)C(F)(F)F)c(F)cc1F)c1cc(NC(=O)[C@H]2[C@H](c3ccc(Cl)c(Cl)c3)C2(Cl)Cl)ccc1Cl [F1245, 2-Chloro-5-((1R,3R)-2,2-dichloro-3-(3,4-dichlorophenyl)cyclopropane-1-carboxamido)-N-(2,4-difluoro-5-(2,2,2-trifluoroacetamido)phenyl)benzamide]
pest or weed control at 50 µg/cm2 [1, 8]: 50 to 100% | YFM [2]: A (80–100) | pest or weed control at 200 µg/mL [3, 9]: 0 to 80% | pest or weed control at 50 µg/cm2 [4, 10]: 50 to 100%

CC(=O)Nc1cc(NC(=O)c2cc(NC(=O)[C@H]3[C@H](c4ccc(Cl)c(Cl)c4)C3(Cl)Cl)ccc2Cl)c(F)cc1F [F1246, N-(5-Acetamido-2,4-difluorophenyl)-2-Chloro-5-((1R,3R)-2,2-dichloro-3-(3,4-dichlorophenyl)cyclopropane-1-carboxamido)benzamide]
pest or weed control at 50 µg/cm2 [1, 8]: 50 to 100% | YFM [2]: A (80–100) | pest or weed control at 200 µg/mL [3, 9]: 80 to 100% | pest or weed control at 50 µg/cm2 [4, 10]: 50 to 100%

Nc1ccc(F)c(NC(=O)c2cc(NC(=O)[C@H]3[C@H](c4ccc(F)c(Cl)c4)C3(Cl)Cl)ccc2Cl)c1F [F1247, N-(3-Amino-2,6-difluorophenyl)-2-chloro-5-((1R,3R)-2,2-dichloro-3-(3-chloro-4-fluorophenyl)cyclopropane-1-carboxamido)benzamide]
pest or weed control at 50 µg/cm2 [1, 8]: 50 to 100% | YFM [2]: A (80–100) | pest or weed control at 200 µg/mL [3, 9]: 80 to 100% | pest or weed control at 50 µg/cm2 [4, 10]: 50 to 100%

O=C(Nc1ccc(F)c(NC(=O)C(F)(F)Cl)c1F)c1cc(NC(=O)[C@H]2[C@H](c3ccc(Cl)c(Cl)c3)C2(Cl)Cl)ccc1Cl [F1248, 2-Chloro-N-(3-(2-chloro-2,2-difluoroacetamido)-2,4-difluorophenyl)-5-((1R,3R)-2,2-dichloro-3-(3,4-dichlorophenyl)cyclopropane-1-carboxamido)benzamide]
pest or weed control at 50 µg/cm2 [1, 8]: 50 to 100% | YFM [2]: A (80–100) | pest or weed control at 200 µg/mL [3, 9]: 80 to 100% | pest or weed control at 50 µg/cm2 [4, 10]: 50 to 100%

Nc1ccc(F)c(NC(=O)c2cc(NC(=O)[C@H]3[C@H](c4ccc(Cl)c(Cl)c4)C3(Cl)Cl)ccc2Cl)c1F [F1250, N-(3-Amino-2,6-difluorophenyl)-2-chloro-5-((1R,3R)-2,2-dichloro-3-(3,4-dichlorophenyl)cyclopropane-1-carboxamido)benzamide]
pest or weed control at 50 µg/cm2 [1, 8]: 50 to 100% | YFM [2]: A (80–100) | pest or weed control at 200 µg/mL [3, 9]: 80 to 100% | pest or weed control at 50 µg/cm2 [4, 10]: 50 to 100%
